We go through 15 compounds from ChEMBL document CHEMBL5634169 (Bioorg Med Chem Lett, 2024).

Data set [1] in a line: Cytotoxicity against human A549 cells by SRB assay. Format: toxicity, cell-based.
The nature of data set [2]: Inhibition of Influenza A virus H5N1 neuraminidase.

As for `COc1ccc(C(=O)N/N=C(\C)c2ccc(NC(=O)Cc3cccs3)cc2)cc1`, the CC50 in data set [1] amounted to 37.6 µM. Further, the IC50 in data set [2] is 0.13 µM.

In data set [2], `C/C(=N\NC(=O)c1ccc(O)cc1)c1ccc(NC(=O)c2ccco2)cc1` came in with an IC50 of 0.2 µM.

For `C/C(=N\NC(=O)c1ccc(O)cc1)c1ccc(NC(=O)Cc2cccs2)cc1`, half-maximal inhibition in data set [2] (IC50) required 0.65 µM. Compared with the last compound, the IC50 is about 3.2-fold higher.

`C/C(=N\NC(=O)Cc1cccc2ccccc12)c1ccc(NC(=O)Cc2cccs2)cc1` had an IC50 in data set [2] of 2.78 µM. Compared with the last compound, the IC50 is about 4.3-fold higher.

Regarding `C/C(=N\NC(=O)c1ccc([N+](=O)[O-])cc1)c1ccc(NC(=O)c2ccco2)cc1`, the IC50 in data set [2] stood at 1.53 µM.

Consider `C/C(=N\NC(=O)c1ccc([N+](=O)[O-])cc1)c1ccc(NC(=O)Cc2cccs2)cc1`, for which it took 6.1 µM to reach half-maximal inhibition in data set [2] (IC50).

Regarding `C/C(=N\NC(=O)c1ccc(C(C)(C)C)cc1)c1ccc(NC(=O)Cc2cccs2)cc1`, in data set [2], the IC50 came out at 0.94 µM.

Compound `C/C(=N\NC(=O)c1ccc(C(C)(C)C)cc1)c1ccc(NC(=O)c2ccco2)cc1` returned an IC50 in data set [2] of 28.6 µM. Against the preceding compound, the IC50 is about 30-fold higher.

The compound `C/C(=N\NC(=O)c1ccc(Cl)cc1)c1ccc(NC(=O)Cc2cccs2)cc1` yielded an IC50 in data set [2] of 0.31 µM.

In data set [1], `CCC(CC)O[C@@H]1C=C(C(=O)O)C[C@H](N)[C@H]1NC(C)=O` [OSELTAMIVIR CARBOXYLATE] showed a CC50 of 61.2 µM. This compound yielded an IC50 in data set [2] of 0.31 µM.

`C/C(=N\NC(=O)Cc1cccc2ccccc12)c1ccc(NC(=O)c2ccco2)cc1` yielded an IC50 in data set [2] of 46.8 µM.

Regarding `COc1ccc(C(=O)N/N=C(\C)c2ccc(NC(=O)c3ccco3)cc2)cc1`, the IC50 in data set [2] turned out to be 32 µM.

The compound `C/C(=N\NC(=O)c1ccc(Cl)cc1)c1ccc(NC(=O)c2ccco2)cc1` showed a 50% inhibitory concentration (IC50) in data set [2] of 21.3 µM. Compared with the last compound, the IC50 is about 1.5-fold lower.

In data set [2], `C/C(=N\NC(=O)c1ccc(F)cc1)c1ccc(NC(=O)c2ccco2)cc1` registered an IC50 of 19.4 µM.

The compound `C/C(=N\NC(=O)c1ccc(F)cc1)c1ccc(NC(=O)Cc2cccs2)cc1` returned a cytotoxic concentration (CC50) in data set [1] of 55.3 µM. In data set [2], this compound had an IC50 of 23.6 µM.
